2 compounds from US10071092B2, “Polymorphic forms of vortioxetine and its pharmaceutically acceptable salts” (ALEMBIC PHARMACEUTICALS LIMITED, priority 2014, dated 2018) can be followed below.

Data set [1] is described as follows: Moisture content of the solid. In kind it is physicochemical. As for the experimental part:
Thermo gravimetric analysis (TGA) used for estimation of solvent/water content of dried material is performed using a TA-instruments TGA-Q500 about 10 mg sample is heated 10°/min in an open pan under nitrogen flow.
Vortioxetine Adipate (30.0 g) and dichloromethane (450 ml) were charged in round bottom flask stirred it for 5 mins. Solution of NaOH (8.1 g in 300 ml water) and solution of NaCl (7.5 g in 75 ml water) were added into above resulting solution and stirred it till clear solution was observed. Organic layer was separated out. HBr in acetic acid (18 g) was added into organic layer and stirred it for 30 mins. Acetic acid (150 ml) was added into reaction mixture. Dichloromethane was distilled out atmospherically from reaction mixture. Acetic acid (200 ml) and water (50 ml) were added into the reaction mixture. Water (1250 ml) was taken into another round bottom flask at 30±5° C. and cooled to 7±3° C. Reaction mixture was added into water containing round bottom flask within 15-30 minutes at 7±3° C. and after addition, reaction mixture's temperature allowed to come to 20±2° C. Reaction mixture was stirred for 30 minutes at 20±2° C. Reaction mixture was filtered and washed it with water (50 ml). Solid was dried to get Vortioxetine Hydrobromide (Form Ad) under vacuum for 6-8 hrs at 45±3° C. (Moisture content of solid is less than 1.0% w/w) […]

Data set [2] is described as follows: Polymorphic stability on exposure to moisture. Format: physicochemical. As for the experimental part: Vortioxetine Adipate (30.0 g) and dichloromethane (450 ml) were charged in round bottom flask stirred it for 5 mins. Solution of NaOH (8.1 g in 300 ml water) and solution of NaCl (7.5 g in 75 ml water) were added into above resulting solution and stirred it till clear solution was observed. Organic layer was separated out. HBr in acetic acid (18 g) was added into organic layer and stirred it for 30 mins. Acetic acid (150 ml) was added into reaction mixture. Dichloromethane was distilled out atmospherically from reaction mixture. Acetic acid (200 ml) and water (50 ml) were added into the reaction mixture. Water (1250 ml) was taken into another round bottom flask at 30±5° C. and cooled to 7±3° C. Reaction mixture was added into water containing round bottom flask within 15-30 minutes at 7±3° C. and after addition, reaction mixture's temperature allowed to come to 20±2° C. Reaction mixture was stirred for 30 minutes at 20±2° C. Reaction mixture was filtered and washed it with water (50 ml). Solid was dried to get Vortioxetine Hydrobromide (Form Ad) under vacuum for 6-8 hrs at 45±3° C. (Moisture content of Vortioxetine Hydrobromide (Form Ad) is less than 1.0% w/w). Vortioxetine Hydrobromide (Form Ad) was exposed at 40% RH and 25° C. for 2 hours to get Vortioxetine Hydrobromide (Form A). (Moisture content of Vortioxetine Hydrobromide (Form A) is between 4.2-4.8% w/w)

Where a name gives a salt, the structure may show the parent alone.

As to `Cc1ccc(Sc2ccccc2N2CCNCC2)c(C)c1` [Vortioxetine Hydrobromide (Form A), Vortioxetine Hydrobromide], in data set [1] (after Form Ad was exposed at 40% RH and 25° C. for 2 hours), the Moisture content is reported as 4.2-4.8 % w/w. Consider `Cc1ccc(Sc2ccccc2N2CCNCC2)c(C)c1` [Vortioxetine Hydrobromide (Form Ad), Vortioxetine Hydrobromide], for which, in data set [1] (solid dried under vacuum for 6-8 hrs at 45±3° C.), the Moisture content entry is “less than 1.0 % w/w”. Also, the “Form change when exposed to moisture” value in data set [2] was “converts into form A”.
